These results are taken from patent US20040115626A1, “Human pgc-1 promoter” (priority 2000, published 2004).

The subject of one test is hPGC-1 promoter. Briefly: hPGC-1 promoter luciferase reporter assay in transiently transfected L6 cells. To be noted: for activity at 1 µM: 1 μM compound; for activity at 1 µM / activity at 5 µM / activity at 25 µM: reporter vector phPGC1(2.2)Luc, luciferase activity relative to no compound; for activity at 5 µM: 5 μM compound; for activity at 25 µM: 25 μM compound; for promoter activating ability relative to the case of adding no compound: at compound final concentration of 1 μM, 5 μM or 25 μM, phPGC1(2.2)Luc. The test is classed as cell-based. The method, then: Various reporter vectors shown in FIG. 1 were transiently transfected into L6 cells. Specifically, L6 cells were cultured in a tissue culture dish having a diameter of 10 cm and at the time when it was reached 50% confluent, 5 μg of the above plasmid and 1.5 μg of a plasmid pCH110 containing β-galactosidase gene controlled by β-actin promoter were used in combination in order to standardize gene transfection efficiency and the plasmids were introduced into the cells using FuGENE™6 (BOEHRINGER MANNHEIM, USA, 1814 443). After 24 hours, the cells were transferred into a 96-well culture dish, followed by additional 6 hours of culture. From the reports until now, since it is known that 9-cis-RETINOIC ACID (one of vitamin A acids) increases the expression of PGC-1 gene derived from mouse in cells (Cell, 92, 829-839 (1998)), 9-cis-RETINOIC ACID (SIGMA, USA, R4643) having a final concentration of 1 μM was added and the mixture was treated for 24 hours. Then, the cells were dissolved with a cell dissolving liquid LCβ (Toyo Ink, Japan) and luciferase activity thereof was measured using a PicaGene Luminescent Kit (Toyo Ink, Japan, 309-04321). By the way, all the activity measurements were carried out three times per measurement and each experiment was repeated at least twice to confirm the reproducibility.
Each reporter activity was standardized by β-galactosidase activity and expressed by a relative value wherein the value in the case of adding no compound was regarded as 1. In L6 cells, hPGC-1 reporter was increased a maximum of about 2.5 times by the treatment with 9-cis-RETINOIC ACID and thus a result consistent with the report that the expression of PGC-1 gene derived from mouse was enhanced by 9-cis-RETINOIC ACID was obtained.
Using the reporter vector phPGC1(2.2)Luc in the method described in Example 5, screening of a compound stimulating an hPGC-1 promoter activity was carried out wherein commercially available compounds were used as test compounds. […] By the way, Compound B, Compound E and Compound G are commercially available as the code number 4K@UH1-646 of INTERBIOSCREEN, as the code number MS0447 of MARLIN and as the code number A1773/0075171 of ZELINSKY, respectively and are 5-(4-fluorobenzylidene)-2,4-thiazolidinedione, 5-(4-bromobenzylidene)-2,4-thiazolidinedione, 2-(3-aminophenyl)-5-benzoyl-(1H)-benzimidazole, respectively.
In general terms: Reporter assays use an easily measured gene product as a stand-in for the process of interest.

A further test deals with L6 cells. Kind of test: Measurement of mitochondrial enzymatic activity (WST-1 mitochondrial dehydrogenase colorimetric assay) in L6 cells. The test is classed as cell-based, rat. To be noted: for activity at 1 µM / activity at 5 µM / activity at 25 µM: Rattus norvegicus, 24 hours, relative to no compound. On the procedure:
Rat myoblast L6 (ATCC, CRL-1458) was maintained Dulbecco's modified Eagle medium containing 10% fetal bovine serum (GIBCO BRL, USA, 11965-092) and cultured in a wet air containing 5% CO2 at 37° C.
For the investigation of mitochondrial enzymatic activity of cells, a reagent WST-1 (DOJINDO, 342-06451) was used, which enabled the measurement of mitochondrial dehydrogenase activity of living cells by colorimetric assay method. Specifically, L6 cells were cultured in a tissue culture dish having a diameter of 10 cm and after reached confluent, the cells were transferred into a 96-well tissue culture dish. At that time, the medium was changed to Dulbecco's modified Eagle medium containing no Phenol Red (GIBCO BRL, USA, 21063-029). […] After the addition of each compound and 24 hours of treatment, the medium containing the compound was sucked and discarded and thereto were added 100 μl of Dulbecco's modified Eagle medium containing no Phenol Red and no fetal bovine serum and 10 μL of PBS containing 5 mM WST-1 and 0.2 mM 1-Methoxy PMS (DOJINDO, 345-04001). After 4 hours of reaction at 37° C., absorbance was measured at a measuring wavelength of 450 nm. In this regard, all the activity measurements were carried out three times per measurement and each experiment was repeated at least twice to confirm the reproducibility.
Tables 2(a) and 2(b) show the results of 9-cis-RETINOIC ACID and the compounds obtained in Example 6, respectively. Each value was expressed by a relative value wherein the absorbance of the sample containing no cell was subtracted as a background from each absorbance and the value in the case of adding no compound was regarded as 1. […] As mentioned above, it was shown that substances stimulating an hPGC-1 promoter activity have an action to activate mitochondrial enzymes.
On the technique in general: Tetrazolium dyes change colour on reduction, which living cells bring about.

With `Nc1cccc(-c2nc3cc(C(=O)c4ccccc4)ccc3[nH]2)c1` [Compound G, 2-(3-aminophenyl)-5-benzoyl-(1H)-benzimidazole], in the test on hPGC-1 promoter, the activity at 1 µM stood at 207%, the activity at 5 µM is 175%, the activity at 25 µM stood at 91% and the “promoter activating ability relative to the case of adding no compound” value is on record as “more than twice”. For the same compound, in the test on L6 cells, the activity at 1 µM was found to be 80%, the activity at 5 µM turned out to be 102% and the activity at 25 µM was 176%.

Take `O=C1NC(=O)C(=Cc2ccc(F)cc2)S1` [Compound B, 5-(4-fluorobenzylidene)-2,4-thiazolidinedione]: in the test on hPGC-1 promoter, the activity at 1 µM turned out to be 160%, the activity at 5 µM came to 203%, the activity at 25 µM turned out to be 202% and the “promoter activating ability relative to the case of adding no compound” value is given as “more than twice”. In the test with L6 cells, the activity at 1 µM was 94%, the activity at 5 µM was determined as 121% and the activity at 25 µM is 175%.

As for `CC1=C(/C=C/C(C)=C\C=C\C(C)=C\C(=O)O)C(C)(C)CCC1` [9-cis-RETINOIC ACID, reference compound], the “increase of hPGC-1 reporter activity (maximum)” value in the test on hPGC-1 promoter (1 μM, 24 hours, normalized with β-galactosidase, no compound = 1, maximum over the reporter vectors) is listed as “about 2.5 times”. In addition, the reporter activity result with hPGC-1 promoter (1 μM, 24 hours, reporter vector hPGC1(0.1)Luc) is reported as “completely lost”. Further, the “activity enhancement (9-cis-RETINOIC ACID responsibility) of reporter” value in the test on hPGC-1 promoter (1 μM, 24 hours, reporter vectors hPGC1(0.2)Luc to hPGC1(5.2)Luc) is “strongly observed”. In addition, the “mitochondrial enzymatic activity (statement in words)” value in the test on L6 cells (24 hours treatment, Dunnett test) was “increased mitochondrial enzymatic activity with a significant difference”.

`O=C1NC(=O)C(=Cc2ccc(Br)cc2)S1` [Compound E, 5-(4-bromobenzylidene)-2,4-thiazolidinedione]: in the test on hPGC-1 promoter, the activity at 1 µM is 146%, the activity at 5 µM came to 208%, the activity at 25 µM worked out at 157% and the “promoter activating ability relative to the case of adding no compound” value was “more than twice”. Also, in the test on L6 cells, the activity at 1 µM was 102%, the activity at 5 µM is 141% and the activity at 25 µM was determined as 285%.
